# Experimental data as given in ChEMBL document CHEMBL1122946, “Folate antagonists. 21. Synthesis and antimalarial properties of 2,4-diamino-6-(benzylamino)pyrido[3,2-d]pyrimidines” (1985).
# Columns and labels:
# Mus musculus [1] = assay: Mean survival time against trophozoite induced Plasmodium berghei in mice minus control was evaluated at a dose 20 mg/kg;3 survived out of 15 animals at 60 days postinjection; type: functional, organism-based; parameters: dose 20 mg/kg
# Mus musculus [2] = assay: Mean survival time against trophozoite induced Plasmodium berghei in mice minus control was evaluated at a dose 1.25 mg/kg; type: functional
# Mus musculus [3] = assay: Mean survival time against trophozoite induced Plasmodium berghei in mice minus control was evaluated at a dose 10 mg/kg; type: functional
# Mus musculus [4] = assay: Mean survival time against trophozoite induced Plasmodium berghei in mice minus control was evaluated at a dose 40 mg/kg; 11 survived out of 15 animals at 60 days postinjection; type: functional, organism-based; parameters: dose 40 mg/kg
# Mus musculus [5] = assay: Mean survival time against trophozoite induced Plasmodium berghei in mice minus control was evaluated at a dose 2.5 mg/kg.; type: functional
# Mus musculus [6] = assay: Mean survival time against trophozoite induced Plasmodium berghei in mice minus control was evaluated at a dose 640 mg/kg; 5 toxic death occurred out of 5 animals on days 2-5 after injection; type: functional, organism-based; parameters: dose 640 mg/kg
# Mus musculus [7] = assay: Mean survival time against trophozoite induced Plasmodium berghei in mice minus control was evaluated at a dose 160 mg/kg; 8 toxic death occurred out of 10 animals on days 2-5 after injection; type: functional, organism-based; parameters: dose 160 mg/kg
# Mus musculus [8] = assay: Mean survival time against trophozoite induced Plasmodium berghei in mice minus control was evaluated at a dose 80 mg/kg; 4 toxic death occurred out of 10 animals on days 2-5 after injection.; type: functional, organism-based; parameters: dose 80 mg/kg
# Mus musculus [9] = assay: Mean survival time against trophozoite induced Plasmodium berghei in mice minus control was evaluated at a dose 5 mg/kg.; type: functional
# Mus musculus [10] = assay: Mean survival time against trophozoite induced Plasmodium berghei in mice minus control was evaluated at a dose 320 mg/kg; 8 toxic death occurred out f 10 animals on days 2-5 after injection; type: functional, organism-based; parameters: dose 320 mg/kg
# Mus musculus [11] = assay: Mean survival time against trophozoite induced Plasmodium berghei in mice minus control was evaluated at a dose 640 mg/kg; 15 toxic death occurred out of 15 animals on days 2-5 after injection; type: functional, organism-based; parameters: dose 640 mg/kg
# Mus musculus [12] = assay: Mean survival time against trophozoite induced Plasmodium berghei in mice minus control was evaluated at a dose 160 mg/kg; 14 toxic death occurred out of 20 animals on days 2-5 after injection; type: functional, organism-based; parameters: dose 160 mg/kg
# Mus musculus [13] = assay: Mean survival time against trophozoite induced Plasmodium berghei in mice minus control was evaluated at a dose 10 mg/kg.; type: functional
# Mus musculus [14] = assay: Mean survival time against trophozoite induced Plasmodium berghei in mice minus control was evaluated at a dose 80 mg/kg; 5 survived out of 5 animals at 60 days postinjection.; type: functional, organism-based; parameters: dose 80 mg/kg
# Mus musculus [15] = assay: Mean survival time against trophozoite induced Plasmodium berghei in mice minus control was evaluated at a dose 320 mg/kg; 10 toxic death occurred out of 10 animals on days 2-5 after injection; type: functional, organism-based; parameters: dose 320 mg/kg
# Mus musculus [16] = assay: Mean survival time against trophozoite induced Plasmodium berghei in mice minus control was evaluated at a dose 1.25 mg/kg.; type: functional
# Mus musculus [17] = assay: Mean survival time against trophozoite induced Plasmodium berghei in mice minus control was evaluated at a dose 40 mg/kg; type: functional
# Mus musculus [18] = assay: Mean survival time against trophozoite induced Plasmodium berghei in mice minus control was evaluated at a dose 20 mg/kg; type: functional
SMILES,Delta MST (Mus musculus [1]),Delta MST (Mus musculus [2]) [days],Delta MST (Mus musculus [3]) [days],Delta MST (Mus musculus [4]),Delta MST (Mus musculus [5]) [days],Delta MST (Mus musculus [6]),Delta MST (Mus musculus [7]),Delta MST (Mus musculus [8]),Delta MST (Mus musculus [9]) [days],Delta MST (Mus musculus [10]),Delta MST (Mus musculus [11]),Delta MST (Mus musculus [12]),Delta MST (Mus musculus [13]) [days],Delta MST (Mus musculus [14]),Delta MST (Mus musculus [15]),Delta MST (Mus musculus [16]) [days],Delta MST (Mus musculus [17]) [days],Delta MST (Mus musculus [18]) [days]
CC#N.CC(C)N(Cc1ccc(Cl)cc1)c1ccc2nc(N)nc(N)c2n1,Survivals 3/15,3.5,11.5,Survivals 11/15,6.5,Toxic Deaths 5/5,Toxic Deaths 8/10,Toxic Deaths 4/10,8.5,Toxic Deaths 8/10,–,–,–,–,–,–,–,–
CCCN(Cc1ccc(Cl)cc1)c1ccc2nc(N)nc(N)c2n1,–,–,–,–,8.1,–,–,–,8.9,–,Toxic Deaths 15/15,Toxic Deaths 14/20,10.3,Survivals 5/5,Toxic Deaths 10/10,6.9,21.3,18
